Values quoted from earlier work as cited in patent US8679304B2, “Apparatus for creating bioactive solution” (priority 2008, dated 2014).

System: Cryptosporidium oocysts
Conditions: pH 7

SMILES: [O][Cl+][O-] [chlorine dioxide]
- approximate CT values for 99% inactivation: ~78
